The values that follow come from paper PMC8131842, “Therapeutic Potential of Vasoactive Intestinal Peptide and its Derivative Stearyl-Norleucine-VIP in Inflammation-Induced Osteolysis” (Frontiers in Pharmacology, 2021).

One data set has as its system Guinea pigs. The data set can be described thus: Study 003 skin sensitization: adjuvant and patch test. Format: in vivo, guinea pig. The conditions noted are these: daily applications for 3 days, SNV 7 mg/animal (1000X). As for the experimental part: Toxicology. We performed toxicology studies for SNV that consisted of acute subcutaneous, intravenous and oral toxicity in rats, acute dermal toxicity in rabbits, skin sensitization using adjuvant and patch test in guinea pigs, and single and repeated (for 13 weeks) dose toxicity studies in rats. The latter was a 90-days repeated dose toxicity study, consisting of SNV once a day at three different doses to the penis and vagina of male and female rats, respectively. The compound was tested for the treatment of erectile dysfunction. The active dose (7 µg SNV) was chosen as the lowest dose for the study. The highest dosage group in the repeated dose toxicity study received 3,500 µg ([Gozes et al., 1994]). For study 001 (parts 1 through 3), the 1× dose consisted of 0.5 mg SNV dissolved in 7.1 ml vehicle (3.55 ml 10% Sefsol [glycerin monocaprylate] + 3.55 ml isopropanol) and 100µl/animal were administered; the 1000X dose consisted of 91 mg SNV dissolved in 1.3 ml vehicle (0.65 ml 10% Sefsol +0.65 ml isopropanol) and 100µl/animal were administered. For studies 002 through 004, the indicated doses of SNV (Table 1) were dissolved in 0.25 ml 10% Sefsol +0.25 ml 40% isopropanol (vehicle). The methodology for each of the toxicology studies is detailed in Table 1.

The test system of data set [1] is Primary murine macrophages/preosteoclasts. Nature of the data set: MTT viability assay. It is filed as cell-based, mouse. The settings on record: 10^-6 M, 20 ng/ml M-CSF, 1, 3 and 5 days of treatment, N=5. The procedure:
MTT assay. For proliferation assay, macrophages were plated (4000 cells/well) into 96-well plate with standard medium supplemented with 20 ng of M-CSF. Cells were treated as indicated with either TiP, SNV, VIP (10^−6 M) or vehicle at first day of incubation. Cells viability was determined using dimethylthiazol-diphenyl-tetrazolium-bromide (MTT) after 1, 3 or 5 days. MTT was added to a final concentration of 5 mg/ml and incubated for 4 h at 37°C. After complete solubilization of the die in DMSO, plates were read at 570 nm in a colorimetric plate reader.
FIGURE 4 VIP and SNV alleviate the osteoclastogenic effect of TiP-induced inflammation. (A) Primary BMDM were exposed to TiP and RNA was collected after 24 h. mRNA expression are presented as Mean±SD fold change versus Control. * p<0.05 vs. Control. (B-D) Primary murine preosteoclasts were cultured in 20 ng/ml M-CSF and 50 ng/ml RANKL for 48 h. Conditioned medium from macrophages (Control) and macrophages exposed to Ti particles (Ti, as in A) was then added together with 10^-6M of VIP or SNV (or saline) for 48 h before TRAP staining. Data are Mean±SD for osteoclast % surface area (B) and number per well (C). (D) Representative images all acquired at a 4x original magnification. The scale bar for all images is in the upper left panel. n=8, #p<0.05 vs. Control; *p<0.05 vs. Ti, ANOVA. […]
In general terms: Tetrazolium dyes change colour on reduction, which living cells bring about.

The conditions of data set [2]: matrix not given, ref Gozes et al., 1994, 1996; cited from earlier work. The text has this: VIP derivatives and conjugates were designed to include a lipophilic moiety or a shortened VIP chain ([Gozes and Fridkin, 1992]; [Gozes et al., 1994]; [Gozes et al., 1995]; [Gozes et al., 1996]; [Gozes et al., 1999]). Stearyl-norleucine-VIP (Stearyl-Nle^17VIP, SNV) is a lipophilic compound consisting of a VIP molecule with an N-terminal attachment of stearic acid to increase cell and tissue bioavailability and an exchange of the oxidation-vulnerable methionine at position 17 with the stable norleucine.

In the case of `O=[N+]([O-])c1ccc(Cl)c([N+](=O)[O-])c1` [1%-chloro-2,4-dinitrobenzene, reference compound], in the data set on Guinea pigs (adjuvant and patch test), the Mortality entry was “None”. The Skin reactions result in the data set with Guinea pigs (intradermal Freund's complete adjuvant and patch application, 3 males + 3 females per group) is “severe erythema, edema and necrosis”.
`CC[C@H](C)[C@H](NC(=O)[C@H](CO)NC(=O)[C@H](CC(N)=O)NC(=O)[C@H](CC(C)C)NC(=O)[C@H](Cc1ccc(O)cc1)NC(=O)[C@H](CCCCN)NC(=O)[C@H](CCCCN)NC(=O)[C@@H](NC(=O)[C@H](C)NC(=O)[C@H](CCSC)NC(=O)[C@H](CCC(N)=O)NC(=O)[C@H](CCCCN)NC(=O)[C@H](CCCN=C(N)N)NC(=O)[C@H](CC(C)C)NC(=O)[C@H](CCCN=C(N)N)NC(=O)[C@@H](NC(=O)[C@H](Cc1ccc(O)cc1)NC(=O)[C@H](CC(N)=O)NC(=O)[C@H](CC(=O)O)NC(=O)[C@@H](NC(=O)[C@H](Cc1ccccc1)NC(=O)[C@@H](NC(=O)[C@H](C)NC(=O)[C@H](CC(=O)O)NC(=O)[C@H](CO)NC(=O)[C@@H](N)Cc1c[nH]cn1)C(C)C)[C@@H](C)O)[C@@H](C)O)C(C)C)C(=O)N[C@@H](CC(C)C)C(=O)N[C@@H](CC(N)=O)C(N)=O` [VIP, Vasoactive intestinal peptide]: the “Viability of the cells (MTT, optical density)” value in data set [1] is “neither VIP nor SNV affected the viability”. Moreover, the Half-life in data set [2] is recorded as roughly 30 s.
